In patent US20240360178A1, “MACROCYCLIC IMMUNOMODULATORS” (Bristol-Myers Squibb Company, priority 2021, published 2024):
Positions of bridges follow the written chain, without caps; N, C: chain ends. Non-standard residues stand in square brackets, D forms with d. Residues, ends and D or L forms follow the SMILES beside them. *: point of attachment. Phe(4-COOH) = N[C@@H](Cc1ccc(C(=O)O)cc1)C(=O)O; Bip = N[C@@H](Cc1ccc(-c2ccccc2)cc1)C(=O)O; Phe(3-Me) = Cc1cccc(C[C@H](N)C(=O)O)c1; NMeY = CN[C@@H](Cc1ccc(O)cc1)C(=O)O; NMeF = CN[C@@H](Cc1ccccc1)C(=O)O; Cha = N[C@@H](CC1CCCCC1)C(=O)O; Carboxymethyl = O=C(O)C*; NMeA = CN[C@@H](C)C(=O)O; Nle = CCCC[C@H](N)C(=O)O; Orn = NCCC[C@H](N)C(=O)O; Dab = NCC[C@H](N)C(=O)O; NBuGly = CCCCNCC(=O)O; Sar = CNCC(=O)O

Target: T1, human PD-1 (Jurkat-PD-1 cells) / PE-labeled human PD-L1-Ig (Homo sapiens, UniProt Q15116)
T1 construct: expressed in transfected cells; host or cells: Jurkat cell line over-expressing human PD-1
T1 sequence (Q15116 25-288): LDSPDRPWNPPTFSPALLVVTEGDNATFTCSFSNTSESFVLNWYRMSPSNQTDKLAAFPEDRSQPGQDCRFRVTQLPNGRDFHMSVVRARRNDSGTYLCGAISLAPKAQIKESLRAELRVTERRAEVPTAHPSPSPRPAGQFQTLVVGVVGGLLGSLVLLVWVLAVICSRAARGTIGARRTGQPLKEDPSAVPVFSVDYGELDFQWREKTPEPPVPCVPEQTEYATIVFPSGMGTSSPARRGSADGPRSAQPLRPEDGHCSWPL
Experiment: Jurkat-PD-1 Cell Binding High-Content Screening Assay (CBA); Jurkat hPD1-PDL1 assay
Settings: Jurkat cell line over-expressing human PD-1; PE-labeled PD-L1-Ig 20 nM final; compound incubated 2 hours at 37° C.; read-out: Jurkat HPD1-PDL1 IC50
Procedure, shortened: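 Binding of phycoerythrin-conjugated PD-L1-Ig (20 nM final) to PD-1-overexpressing Jurkat cells was read by high-content imaging. Cells in DMEM/10% FCS were exposed to compound for 2 hours at 37° C before labeled ligand was added.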

Q: For `CCCC[C@@H]1NC(=O)[C@H](CC(N)=O)NC(=O)[C@H]2CCCN2C(=O)[C@H](C)N(C)C(=O)[C@H](C(C)C)NC(=O)[C@H](Cc2ccc(-c3ccccc3)cc2)NC(=O)[C@H](CC(C)C)NC(=O)[C@H](Cc2c[nH]c3ccccc23)NC(=O)[C@H](CC(=O)O)NC(=O)[C@H](Cc2ccc(O)cc2)NC(=O)[C@H](Cc2ccccc2)NC(=O)CSC[C@@H](C(=O)N[C@@H](C)C(N)=O)NC(=O)[C@H]([C@@H](C)O)NC(=O)[C@H](CCCNC(=N)N)NC1=O` [Example 1121] ({CH2CO}-FYDWL[Bip]V[NMeA][dP]N[Nle]RTCA-NH2; thioether N-14), which IC50 is on record?
A: Its IC50 is 430 nM.

Q: How did the IC50 turn out when `CC(C)C[C@@H]1NC(=O)[C@H](CCCNC(=N)N)NC(=O)[C@H](Cc2ccccc2)N(C)C(=O)[C@@H](C)NC(=O)[C@H](CCCNC(=N)N)NC(=O)[C@H](Cc2ccc(-c3ccccc3)cc2)NC(=O)[C@H](C(C)C)NC(=O)[C@H](Cc2c[nH]c3ccccc23)NC(=O)[C@H](CC(=O)O)NC(=O)[C@H](Cc2ccc(O)cc2)NC(=O)[C@H](CC(N)=O)NC(=O)CSC[C@@H](C(=O)N[C@@H](C)C(N)=O)NC(=O)[C@H]([C@@H](C)O)NC(=O)[C@H](C(C)C)NC1=O` [Example 1363] ({CH2CO}-NYDWV[Bip]R[dA][NMeF]RLVTCA-NH2; thioether N-14) was run?
A: The IC50 was 940 nM.

Q: With `CC(C)C[C@@H]1NC(=O)[C@H](Cc2c[nH]c3ccccc23)NC(=O)[C@H](CC(=O)O)NC(=O)[C@H](Cc2ccc(O)cc2)NC(=O)[C@H](Cc2ccccc2)NC(=O)CSC[C@@H](C(=O)NCC(N)=O)NC(=O)[C@H](CO)NC(=O)[C@H](C(C)C)NC(=O)[C@H](CC(C)C)NC(=O)[C@H](CCN)NC(=O)[C@H]2CCCN2C(=O)[C@H](CCN)NC(=O)[C@H](C(C)C)NC(=O)[C@H](Cc2ccc(-c3ccccc3)cc2)NC1=O` [Example 1417] ({CH2CO}-FYDWL[Bip]V[Dab][dP][Dab]LVSCG-NH2; thioether N-14) as the compound, how does the IC50 read?
A: The IC50 was 70 nM.

Q: Which IC50 does the source give for `CC(C)C[C@@H]1NC(=O)[C@H](Cc2c[nH]c3ccccc23)NC(=O)[C@H](CC(=O)O)NC(=O)[C@H](Cc2ccc(O)cc2)NC(=O)[C@H](Cc2ccccc2)NC(=O)CSC[C@@H](C(=O)N[C@@H](C)C(N)=O)NC(=O)[C@H](CO)NC(=O)[C@H](C(C)C)NC(=O)[C@H](CC(C)C)NC(=O)[C@H](CCCNC(=N)N)NC(=O)[C@H](Cc2ccccc2)N(C)C(=O)[C@H](C)N(C)C(=O)[C@H](CCCNC(=N)N)NC(=O)[C@H](Cc2ccc(-c3ccccc3)cc2)NC1=O` [Example 1078] ({CH2CO}-FYDWL[Bip]R[NMeA][NMeF]RLVSCA-NH2; thioether N-14) here?
A: The IC50 was 220 nM.

Q: `CCCCN1CC(=O)N[C@@H](CCN)C(=O)N[C@@H](CC2CCCCC2)C(=O)N[C@@H](C(C)C)C(=O)N[C@@H](CO)C(=O)N[C@H](C(=O)N[C@@H](CCN)C(N)=O)CSCC(=O)N[C@@H]([C@@H](C)O)C(=O)N[C@@H](Cc2ccc(OCC(=O)O)cc2)C(=O)N[C@@H](CC(=O)O)C(=O)N[C@@H](Cc2cccc(C)c2)C(=O)N[C@@H](Cc2ccc(OCC(=O)O)cc2)C(=O)N[C@@H](Cc2ccc(-c3ccccc3)cc2)C(=O)N[C@@H](Cc2ccc(OCC(=O)O)cc2)C(=O)N(C)[C@@H](C)C1=O` [Example 1186] ({CH2CO}-TY(Carboxymethyl)D[Phe(3-Me)]Y(Carboxymethyl)[Bip]Y(Carboxymethyl)[NMeA][NBuGly][Dab][Cha]VSC[Dab]-NH2; thioether N-14) was tested. Which IC50 did it give?
A: Its IC50 is 380 nM.

Q: `CC(C)C[C@@H]1NC(=O)[C@H](Cc2c[nH]c3ccccc23)NC(=O)[C@H](CC(=O)O)NC(=O)[C@H](Cc2ccc(O)cc2)NC(=O)[C@H](Cc2ccccc2)NC(=O)CSC[C@@H](C(=O)NCC(N)=O)NC(=O)[C@H](CO)NC(=O)[C@H](C(C)C)NC(=O)[C@H](CC(C)C)NC(=O)[C@H](CCCCN)NC(=O)CN(C)C(=O)[C@H](C)N(C)C(=O)[C@H](C(C)C)NC(=O)[C@H](Cc2ccc(-c3ccccc3)cc2)NC1=O` [Example 1051] ({CH2CO}-FYDWL[Bip]V[NMeA][Sar]KLVSCG-NH2; thioether N-14) was tested. Which IC50 did it give?
A: Its IC50 is 110 nM.

Q: How did the IC50 turn out when `CC(C)C[C@@H]1NC(=O)[C@H](Cc2c[nH]c3ccccc23)NC(=O)[C@H](CC(=O)O)NC(=O)[C@H](Cc2ccc(O)cc2)NC(=O)[C@H](Cc2ccccc2)NC(=O)CSC[C@@H](C(=O)N[C@@H](C)C(N)=O)NC(=O)[C@H]([C@@H](C)O)NC(=O)[C@H](CCCCN)NC(=O)[C@H](CC(C)C)NC(=O)[C@H](CC(N)=O)NC(=O)[C@H]2CCCN2C(=O)[C@H](C)N(C)C(=O)[C@H](C(C)C)NC(=O)[C@H](Cc2ccc(-c3ccccc3)cc2)NC1=O` [Example 1089] ({CH2CO}-FYDWL[Bip]V[NMeA][dP]NLKTCA-NH2; thioether N-14) was run?
A: The IC50 was 250 nM.

Q: For `CC(C)[C@@H]1NC(=O)[C@H](Cc2c[nH]c3ccccc23)NC(=O)[C@H](CC(=O)O)NC(=O)[C@H](Cc2ccc(C(=O)O)cc2)NC(=O)[C@H](Cc2ccc(OCC(=O)O)cc2)NC(=O)CSC[C@@H](C(=O)N[C@@H](C)C(N)=O)NC(=O)[C@H]([C@@H](C)O)NC(=O)[C@H](C(C)C)NC(=O)[C@H](CC2CCCCC2)NC(=O)[C@H](CCN)NC(=O)[C@H](Cc2ccc(O)cc2)N(C)C(=O)[C@H](CCCN)NC(=O)[C@H](CCC(=O)O)NC(=O)[C@H](Cc2ccc(-c3ccccc3)cc2)NC1=O` [Example 1433] ({CH2CO}-Y(Carboxymethyl)[Phe(4-COOH)]DWV[Bip]E[Orn][NMeY][Dab][Cha]VTCA-NH2; thioether N-14), which IC50 is on record?
A: Its IC50 is 260 nM.

Q: With `CC(C)C[C@@H]1NC(=O)[C@H](Cc2c[nH]c3ccccc23)NC(=O)[C@H](CC(=O)O)NC(=O)[C@H](Cc2ccc(O)cc2)NC(=O)[C@H](CC(N)=O)NC(=O)CSC[C@@H](C(=O)N[C@@H](C)C(N)=O)NC(=O)[C@H]([C@@H](C)O)NC(=O)[C@H](C(C)C)NC(=O)[C@H](CC(C)C)NC(=O)[C@H](CCN)NC(=O)[C@H]2CCCN2C(=O)[C@H](CCCN)NC(=O)[C@H](C(C)C)NC(=O)[C@H](Cc2ccc(-c3ccccc3)cc2)NC1=O` [Example 1402] ({CH2CO}-NYDWL[Bip]V[Orn][dP][Dab]LVTCA-NH2; thioether N-14) as the compound, how does the IC50 read?
A: Its IC50 is 260 nM.

Q: How did the IC50 turn out when `CC(C)C[C@@H]1NC(=O)[C@H](CCCNC(=N)N)NC(=O)[C@H](Cc2ccccc2)N(C)C(=O)[C@H](C)N(C)C(=O)[C@H](CCCNC(=N)N)NC(=O)[C@H](Cc2ccc(-c3ccccc3)cc2)NC(=O)[C@H](C(C)C)NC(=O)[C@H](Cc2c[nH]c3ccccc23)NC(=O)[C@H](CC(=O)O)NC(=O)[C@H](Cc2ccc(O)cc2)NC(=O)CNC(=O)CSC[C@@H](C(=O)NCC(N)=O)NC(=O)[C@H](CO)NC(=O)[C@H](C(C)C)NC1=O` [Example 1258] ({CH2CO}-GYDWV[Bip]R[NMeA][NMeF]RLVSCG-NH2; thioether N-14) was run?
A: The IC50 was 240 nM.

Q: `CC(C)C[C@@H]1NC(=O)[C@H](CCN)NC(=O)[C@H](Cc2ccccc2)N(C)C(=O)[C@H](C)N(C)C(=O)[C@H](CCCNC(=N)N)NC(=O)[C@H](Cc2ccc(-c3ccccc3)cc2)NC(=O)[C@H](C(C)C)NC(=O)[C@H](Cc2c[nH]c3ccccc23)NC(=O)[C@H](CC(=O)O)NC(=O)[C@H](Cc2ccc(O)cc2)NC(=O)[C@H](Cc2ccccc2)NC(=O)CSC[C@@H](C(=O)N[C@@H](C)C(N)=O)NC(=O)[C@H](CO)NC(=O)[C@H](C(C)C)NC1=O` [Example 1304] ({CH2CO}-FYDWV[Bip]R[NMeA][NMeF][Dab]LVSCA-NH2; thioether N-14) was tested. Which IC50 did it give?
A: The IC50 was 60 nM.

Q: `CC(C)C[C@@H]1NC(=O)[C@H](Cc2c[nH]c3ccccc23)NC(=O)[C@H](CC(=O)O)NC(=O)[C@H](Cc2ccc(O)cc2)NC(=O)[C@H](Cc2ccccc2)NC(=O)CSC[C@@H](C(=O)N[C@@H](C)C(N)=O)NC(=O)[C@H](CO)NC(=O)[C@H](C(C)C)NC(=O)[C@H](CC(C)C)NC(=O)[C@H](CC(N)=O)NC(=O)[C@H](Cc2ccccc2)N(C)C(=O)[C@H](C)N(C)C(=O)[C@H](C(C)C)NC(=O)[C@H](Cc2ccc(-c3ccccc3)cc2)NC1=O` [Example 1060] ({CH2CO}-FYDWL[Bip]V[NMeA][NMeF]NLVSCA-NH2; thioether N-14) was tested. Which IC50 did it give?
A: The IC50 was 140 nM.

Q: With `CC(C)C[C@@H]1NC(=O)[C@H](CCCNC(=N)N)NC(=O)[C@H](Cc2ccccc2)N(C)C(=O)[C@H](C)N(C)C(=O)[C@H](CCCNC(=N)N)NC(=O)[C@H](Cc2ccc(-c3ccccc3)cc2)NC(=O)[C@H](C(C)C)NC(=O)[C@H](Cc2c[nH]c3ccccc23)NC(=O)[C@H](CC(=O)O)NC(=O)[C@H](Cc2ccc(O)cc2)NC(=O)[C@H](CCC(N)=O)NC(=O)CSC[C@@H](C(=O)N[C@@H](C)C(N)=O)NC(=O)[C@H]([C@@H](C)O)NC(=O)[C@H](C(C)C)NC1=O` [Example 1323] ({CH2CO}-QYDWV[Bip]R[NMeA][NMeF]RLVTCA-NH2; thioether N-14) as the compound, how does the IC50 read?
A: Its IC50 is 510 nM.

Q: With `CC(C)C[C@@H]1NC(=O)[C@H](CCCNC(=N)N)NC(=O)[C@H](Cc2ccccc2)N(C)C(=O)[C@H](C)N(C)C(=O)[C@H](CCCN)NC(=O)[C@H](Cc2ccc(-c3ccccc3)cc2)NC(=O)[C@H](C(C)C)NC(=O)[C@H](Cc2c[nH]c3ccccc23)NC(=O)[C@H](CC(=O)O)NC(=O)[C@H](Cc2ccc(O)cc2)NC(=O)[C@H](Cc2ccccc2)NC(=O)CSC[C@@H](C(=O)N[C@@H](C)C(N)=O)NC(=O)[C@H]([C@@H](C)O)NC(=O)[C@H](C(C)C)NC1=O` [Example 1346] ({CH2CO}-FYDWV[Bip][Orn][NMeA][NMeF]RLVTCA-NH2; thioether N-14) as the compound, how does the IC50 read?
A: The IC50 was 310 nM.

Q: Which IC50 does the source give for `CC(C)C[C@@H]1NC(=O)[C@H](CCCNC(=N)N)NC(=O)[C@H]2CCCN2C(=O)[C@H](C)N(C)C(=O)[C@H](C(C)C)NC(=O)[C@H](Cc2ccc(-c3ccccc3)cc2)NC(=O)[C@H](C(C)C)NC(=O)[C@H](Cc2c[nH]c3ccccc23)NC(=O)[C@H](CC(=O)O)NC(=O)[C@H](Cc2ccc(O)cc2)NC(=O)[C@H](Cc2ccccc2)NC(=O)CSC[C@@H](C(=O)N[C@@H](C)C(N)=O)NC(=O)[C@H](CO)NC(=O)[C@H](C(C)C)NC1=O` [Example 1075] ({CH2CO}-FYDWV[Bip]V[NMeA][dP]RLVSCA-NH2; thioether N-14) here?
A: Its IC50 is 200 nM.
